The text below walks through data of patent publication US11753445B2, “Therapeutic peptides” (COHBAR, INC., priority 2016, dated 2023).

Data set [1] relates to 3T3-L1 Adipocytes. In words: Free fatty acid levels in cultured mouse 3T3-L1 adipocytes, isoproterenol stimulated (Example 17). The class given is cell-based. As to conditions: isoproterenol 1 nM. The protocol: Mouse 3T3-L1 cells were seeded at a density between 1,000-20,000 cells per well on 96-well, 48-well, or 24-well plates in Pre-adipocyte Medium (Zen-Bio, Durham, N.C.) and grown to confluence at 37° C. in a humidified atmosphere of 5% CO2/95% air. Two days after confluence, cells were placed in Adipocyte Differentiation Medium (Zen-Bio, Durham, N.C.) and cultured for three additional days at 37° C. in a humidified atmosphere of 5% CO2/95% air. The culture media was then replaced with Adipocyte Maintenance Medium (Zen-Bio) and the cells were maintained for an additional 9-14 days at 37° C. in a humidified atmosphere of 5% CO2/95% air with partial medium replacement every other day. Following 12-17 days of differentiation, test peptides were added at a final concentration of 25-50 μM and incubated for 18-20 hours in Adipocyte Maintenance Medium at 37° C. in a humidified atmosphere of 5% CO2/95%. After the media incubation, media was removed and exchanged with Assay Buffer (Zen-Bio) containing isoproterenol (1 nM) (added to all samples except untreated controls) and the test peptides. Cells were incubated for a further 3 hours at 37° C. in a humidified atmosphere of 5% CO2/95%. Free fatty acid concentrations in the media were determined using a Free Fatty Acid Assay Kit (Zen-Bio) according to the manufacturer's instructions using a plate reader (540 nm).
Absorbance values were corrected for untreated background and expressed relative to isoproterenol treated cells. Treatment with isoproterenol (1 nM) alone was used as the free fatty acid level stimulatory control. The relative standard deviation of the isoproterenol control was <10%. […] Free fatty acid levels for insulin (100 nM) treatment were <5% of the isoproterenol control value.

For data set [2], the system named is 3T3-L1 Adipocytes. Kind of data set: Free fatty acid levels in cultured mouse 3T3-L1 adipocytes, isoproterenol stimulated (Example 2). The class given is cell-based. The note with it: test peptides 25 μM; isoproterenol 1 nM. In short, it runs like this:
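3T3-L1 cells differentiated 12–17 days into adipocytes, then exposed to test peptides at 25 μM final for 18–20 h, then 1 h, then 3 h with isoproterenol (1 nM) at 37 °C. Free fatty acids in the medium measured colorimetrically at 540 nm, corrected for untreated background and expressed relative to isoproterenol-only cells.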

The subject of data set [3] is Human Primary Adipocytes. In words: Free fatty acid levels in cultured human primary adipocytes, isoproterenol stimulated (Example 4). The class given is cell-based. The note with it: test peptides 25 μM; isoproterenol 1 nM. As for the experimental part:
Human primary adipocytes were seeded at 5,000-100,000 cells per well on 96-well, 48-well, or 24-well plates in Pre-adipocyte Medium (Zen-Bio, Durham, N.C.) and grown to confluence at 37° C. in a humidified atmosphere of 5% CO2/95% air. Two days after confluence, cells were placed in Adipocyte Differentiation Medium (Zen-Bio, Durham, N.C.) and cultured for three additional days at 37° C. in a humidified atmosphere of 5% CO2/95% air. The culture media was then replaced with Adipocyte Maintenance Medium (Zen-Bio) and the cells were maintained for an additional 11-21 days at 37° C. in a humidified atmosphere of 5% CO2/95% air with partial medium replacement every other day. Following 14-24 days of differentiation, test peptides were added at a final concentration of 25 μM and incubated for 18-20 hours in Adipocyte Maintenance Medium at 37° C. in a humidified atmosphere of 5% CO2/95%. After 18-20 hours, the media was exchanged with fresh Adipocyte Maintenance Medium containing test peptides and incubated for 1 h at 37° C. in a humidified atmosphere of 5% CO2/95%. After 1 h media was exchanged with Assay Buffer (Zen-Bio) containing isoproterenol (1 nM) (added to all samples except untreated controls) and test peptides. Cells were incubated for a further 3 hours at 37° C. in a humidified atmosphere of 5% CO2/95%. Free fatty acid concentrations in the media were determined using a Free Fatty Acid Assay Kit (Zen-Bio) according to the manufacturer's instructions using a plate reader (540 nm). Absorbance values were corrected for untreated background and expressed relative to isoproterenol treated cells. Treatment with isoproterenol (1 nM) alone was used as the free fatty acid level stimulatory control. The relative standard deviation of the isoproterenol control was <14%. […] Free fatty acid levels for insulin (100 nM) treatment were <5% of the isoproterenol control value.

The subject of data set [4] is Human Primary Adipocytes. Kind of data set: Free fatty acid levels in cultured human primary adipocytes, forskolin stimulated (Example 5). The note with it: test peptides 25 μM; forskolin 1 μM. The class given is cell-based. As for the experimental part: Human primary adipocytes were seeded at 5,000-100,000 cells per well on 96-well, 48-well, or 24-well plate in Pre-adipocyte Medium (Zen-Bio, Durham, N.C.) and grown to confluence at 37° C. in a humidified atmosphere of 5% CO2/95% air. Two days after confluence, cells were placed in Adipocyte Differentiation Medium (Zen-Bio, Durham, N.C.) and cultured for three additional days at 37° C. in a humidified atmosphere of 5% CO2/95% air. The culture media was then replaced with Adipocyte Maintenance Medium (Zen-Bio) and the cells were maintained for an additional 11-21 days at 37° C. in a humidified atmosphere of 5% CO2/95% air with partial medium replacement every other day. Following 14-24 days of differentiation, test peptides were added at a final concentration of 25 μM and incubated for 18-20 hours in Adipocyte Maintenance Medium at 37° C. in a humidified atmosphere of 5% CO2/95%. After 18-20 hours, the media was exchanged with fresh Adipocyte Maintenance Medium containing test peptides and incubated for 1 h at 37° C. in a humidified atmosphere of 5% CO2/95%. After 1 h media was exchanged with Assay Buffer (Zen-Bio) containing forskolin (1 μM) (added to all samples except untreated controls) and test peptides. Cells were incubated for a further 3 hours at 37° C. in a humidified atmosphere of 5% CO2/95%. Free fatty acid concentrations in the media were determined using a Free Fatty Acid Assay Kit (Zen-Bio) according to the manufacturer's instructions using a plate reader (540 nm). Absorbance values were corrected for untreated background and expressed relative to forskolin treated cells. Treatment with forskolin (1 μM) alone was used as the free fatty acid level stimulatory control. The relative standard deviation of the forskolin control was <20%. […] Free fatty acid levels for insulin (100 nM) treatment were <8% of the forskolin control value.

The nature of data set [5]: Stability in mouse plasma, peptides 100 uM (Example 14). The class given is in vitro ADME. The note with it: mouse plasma 37° C., peptide 100 uM. The protocol:
Peptides (100 uM) were incubated in pooled mouse plasma at 37° C. and samples were removed and immediately analyzed for the concentration of intact peptide by LC/MS/MS over the course of 3 hours. The percent of peptide remaining in plasma at each time point was calculated relative to the initial peak area (Table 12).

Ends that are not written are not given here. Peptide text beside a SMILES is read from it. * marks the point of attachment. Biotin = O=C1N[C@H]2[C@H](CS[C@H]2CCCCC(=O)*)N1

Take “358 (Biotin-RWQEMNYIFYPR) [compound 358]”: the “Free Fatty Acid Levels in 3T3-L1 Adipocytes Expressed as a Percent of Isoproterenol Control: Percent of Control Value” in the data set on 3T3-L1 Adipocytes [1] (Peptide Concentration 25 μM) was found to be 60.8%.
As for “359 (RWQEMNYIFYPRK-biotin; not fully specified (residue 13); printed as RWQEMNYIFYPRK-(Biotin)) [compound 359]”, the “Free Fatty Acid Levels in 3T3-L1 Adipocytes Expressed as a Percent of Isoproterenol Control: Percent of Control Value” in the data set with 3T3-L1 Adipocytes [1] (Peptide Concentration 25 μM) turned out to be 34.8%.
“367 (Biotin-KRWQEMNYIFYPR) [compound 367]”: the “Free Fatty Acid Levels in 3T3-L1 Adipocytes Expressed as a Percent of Isoproterenol Control: Percent of Control Value” with 3T3-L1 Adipocytes [1] (Peptide Concentration 50 μM) was 59.0%.
In the case of 368 (PEG600-KNYIFYPR) [compound 368], the “Free Fatty Acid Levels in 3T3-L1 Adipocytes Expressed as a Percent of Isoproterenol Control: Percent of Control Value” in the data set on 3T3-L1 Adipocytes [1] (Peptide Concentration 50 μM) is 70.0%.
The same measure, in the same setting: the figure for 369 (PEG600-KEMNYIFYPR) [compound 369] is 87.5%.
“370 (PEG600-KWQEMNYIFYPR) [compound 370]”: the “Free Fatty Acid Levels in 3T3-L1 Adipocytes Expressed as a Percent of Isoproterenol Control: Percent of Control Value” with 3T3-L1 Adipocytes [1] (Peptide Concentration 50 μM) stood at 129.0%.
Still for that read-out and setting: the figure for “371 (PEG600-KRWQEMNYIFYP) [compound 371]” is 118.0%; for 372 (PEG600-KWQEMNYIFYP) [compound 372] it is 168.0%.
Take `CC[C@H](C)[C@H](NC(=O)[C@H](Cc1ccc(O)cc1)NC(=O)[C@H](CC(N)=O)NC(=O)[C@H](CCSC)NC(=O)[C@H](CCC(=O)O)NC(=O)[C@H](CCC(N)=O)NC(=O)[C@H](Cc1c[nH]c2ccccc12)NC(=O)[C@@H](N)CCCNC(=N)N)C(=O)N[C@@H](Cc1ccccc1)C(=O)N[C@@H](Cc1ccc(O)cc1)C(=O)N1CCC[C@H]1C(=O)N[C@@H](CCCNC(=N)N)C(=O)N[C@H](C)C(=O)O` [compound 355] (HELM PEPTIDE1{R.W.Q.E.M.N.Y.I.F.Y.P.R.[dA]}$$$$V2.0): the “Free Fatty Acid Levels in 3T3-L1 Adipocytes Expressed as a Percent of Isoproterenol Control: Percent of Control Value” in the data set on 3T3-L1 Adipocytes [1] (Peptide Concentration 25 μM) was found to be 97.8%.
On the same count and under the same terms, the same measure for `CC[C@H](C)[C@H](NC(=O)[C@H](Cc1ccc(O)cc1)NC(=O)[C@H](CC(N)=O)NC(=O)[C@H](CCSC)NC(=O)[C@H](CCC(=O)O)NC(=O)[C@H](CCC(N)=O)NC(=O)[C@H](Cc1c[nH]c2ccccc12)NC(=O)[C@@H](N)CCCNC(=N)N)C(=O)N[C@@H](Cc1ccccc1)C(=O)N[C@@H](Cc1ccc(O)cc1)C(=O)N1CCC[C@H]1C(=O)N[C@@H](CCCNC(=N)N)C(=O)N[C@@H](CCCNC(=N)N)C(=O)N[C@H](C)C(=O)O` [compound 356] (HELM PEPTIDE1{R.W.Q.E.M.N.Y.I.F.Y.P.R.R.[dA]}$$$$V2.0): 100.6%.
Consider Ac-YIFYPRKLR-NH2 [compound 58], for which the “Free Fatty Acid Levels in 3T3-L1 Adipocytes Expressed as a Percent of Isoproterenol Control: Percent of Control Value” in the data set with 3T3-L1 Adipocytes [2] is 97.3%. In addition, the “Free Fatty Acid Levels in Human Primary Adipocytes Expressed as a Percent of Isoproterenol Control: Percent of Control Value” with Human Primary Adipocytes [3] amounted to 164%. Further, in the data set with Human Primary Adipocytes [4], the “Free Fatty Acid Levels in Human Primary Adipocytes Expressed as a Percent of Forskolin Control: Percent of Control Value” came to 134%.
On to H-EMNYIFYP-OH [compound 362], for which the “Free Fatty Acid Levels in 3T3-L1 Adipocytes Expressed as a Percent of Isoproterenol Control: Percent of Control Value” with 3T3-L1 Adipocytes [1] (Peptide Concentration 25 μM) was 92.5%.
The same measure, in the same setting: the figure for H-IFYPR-OH [compound 360] is 94.6%.
As to H-MRWQEMGYIFYPRK(Ac)LR-OH [compound 69], in the data set on 3T3-L1 Adipocytes [2], the “Free Fatty Acid Levels in 3T3-L1 Adipocytes Expressed as a Percent of Isoproterenol Control: Percent of Control Value” was 61.3%. Besides, the “Free Fatty Acid Levels in Human Primary Adipocytes Expressed as a Percent of Isoproterenol Control: Percent of Control Value” in the data set on Human Primary Adipocytes [3] is reported as 53.0%. In the data set on Human Primary Adipocytes [4], the “Free Fatty Acid Levels in Human Primary Adipocytes Expressed as a Percent of Forskolin Control: Percent of Control Value” is given as 119%. For the same compound, the “% Remaining at Each Time Point: 0 min” value in data set [5] (0 min) is 100%. Besides, the amount remaining (as a rule, what is left of the initial amount, in per cent) at 0.25 h, 100 uM in data set [5] (pooled mouse plasma, 15 min, read-out: % Remaining at Each Time Point: 15 min) came to 33.1%. In addition, the fraction remaining at 0.5 h, 100 uM in data set [5] (pooled mouse plasma, 30 min, read-out: % Remaining at Each Time Point: 30 min) stood at 37.7%. The amount remaining at 1 h, 100 uM in data set [5] (pooled mouse plasma, 60 min, read-out: % Remaining at Each Time Point: 60 min) stood at 19.3%. Besides, in data set [5] (pooled mouse plasma, 120 min, read-out: % Remaining at Each Time Point: 120 min), the fraction remaining at 2 h, 100 uM worked out at 5.96%. In addition, in data set [5] (pooled mouse plasma, 180 min, read-out: % Remaining at Each Time Point: 180 min), the share remaining at 3 h, 100 uM was 2.11%.
Take H-QEMNYIFYP-OH [compound 363]: in the data set on 3T3-L1 Adipocytes [1] (Peptide Concentration 25 μM), the “Free Fatty Acid Levels in 3T3-L1 Adipocytes Expressed as a Percent of Isoproterenol Control: Percent of Control Value” is recorded as 131.5%.
H-QEMNYIFYPR-OH [compound 366]: the “Free Fatty Acid Levels in 3T3-L1 Adipocytes Expressed as a Percent of Isoproterenol Control: Percent of Control Value” in the data set on 3T3-L1 Adipocytes [1] (Peptide Concentration 25 μM) was found to be 82.0%.
Still for that read-out and setting: the figure for H-RWQEM-OH [compound 351] is 100.1%.
On the same count and under the same terms, the same measure for H-RWQEMNYIFYPR-NH2 [compound 354]: 92.3%; for H-WQEMNYIFY-OH [compound 365]: 85.6%; for H-YIFYPR-OH [compound 296]: 85.0%.
